Test results reported in US20250243486A1, “COMPOSITIONS AND METHODS FOR INHIBITING STAG1 EXPRESSION AND USES THEREOF” (PRESIDENT AND FELLOWS OF HARVARD COLLEGE, priority 2022, published 2025).

System: STAG1 Exon 5
Test: STAG1 Exon 5 inclusion in control or STAG2 KO cells following treatment with H3B-8800
Assay type: cell-based

## H3B-8800
STAG2 KO versus control cells, following treatment of H3B-8800
  STAG1 Exon 5 skipping: increased STAG1 Exon 5 skipping
Cohesin mutations, AML cells
  sensitivity of cohesin-mutant AML cells to splicing inhibitor: highly sensitive
